Each compound was assayed against T1, recombinant human LOX-5 (Homo sapiens, UniProt P09917) (assay: Biochemical LOX-5 assay). Conditions: not given.
T1 construct: expressed in insect cells (Amino Acids 1-674) was obtained from Cayman; purchased Cayman 60402; host or cells: insect cells
T1 sequence (P09917 1-674): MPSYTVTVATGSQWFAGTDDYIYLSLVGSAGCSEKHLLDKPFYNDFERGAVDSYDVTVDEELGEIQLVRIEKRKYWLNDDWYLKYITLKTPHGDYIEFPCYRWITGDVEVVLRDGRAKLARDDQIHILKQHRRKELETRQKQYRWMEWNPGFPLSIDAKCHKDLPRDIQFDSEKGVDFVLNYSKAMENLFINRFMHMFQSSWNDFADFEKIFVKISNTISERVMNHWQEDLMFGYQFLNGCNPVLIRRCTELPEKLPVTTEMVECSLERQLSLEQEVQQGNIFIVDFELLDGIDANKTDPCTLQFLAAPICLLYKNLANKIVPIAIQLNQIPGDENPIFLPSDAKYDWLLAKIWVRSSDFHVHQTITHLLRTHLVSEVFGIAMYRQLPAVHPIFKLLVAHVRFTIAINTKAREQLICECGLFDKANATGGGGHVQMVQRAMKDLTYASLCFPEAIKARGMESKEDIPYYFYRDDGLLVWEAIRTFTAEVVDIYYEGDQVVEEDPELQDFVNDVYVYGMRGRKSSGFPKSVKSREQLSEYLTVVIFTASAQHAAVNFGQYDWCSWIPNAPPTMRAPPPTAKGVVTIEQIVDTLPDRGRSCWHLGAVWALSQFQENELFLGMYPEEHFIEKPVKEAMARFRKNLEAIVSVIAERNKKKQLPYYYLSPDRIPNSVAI
Source text: • Active recombinant human LOX-5 protein expressed in insect cells (Amino Acids 1-674) was obtained from Cayman (Cat #60402) • 2′,7′-dichlorodihydrofluorescein diacetate, H2DCFDA, was obtained from Sigma (Cat #96883) • Arachidonic acid, AA, was obtained from Sigma (Cat #A3611) • Other reagents: black 384 well assay plates were obtained from Corning (Cat #3820). • Equipment: Synergy Neo2 Multi-mode plate reader (Biotek), Labcyte 550 acoustic dispenser (Labcyte), Biomek FX robotic dispenser (Beckman Coulter), Sorvall Legend RT centrifuge (Kendro).
The LOX-5 assay was performed in assay buffer comprising: 50 mM Tris (pH 7.5), 2 mM EDTA, 2 mM CaCl2, 3 uM AA, 10 uM ATP, 10 uM H2DCFDA, and recombinant enzyme (50mU per 20 ul reaction, as defined by manufacturer). Serially diluted compounds were prepared in DMSO in Echo qualified 384 well plates. An assay buffer was then prepared without AA and ATP supplemented with 20 uM H2DCFDA. 10 μL of the supplemented buffer was dispensed into control (no enzyme) wells in the black 384well assay plate. Next, a 2× enzyme solution was prepared, comprising 100 mU LOX-5 enzyme in the supplemented assay buffer. 10 uL of the 2× enzyme solution was then dispensed into test wells in the black 384well assay plate. Serially diluted compounds were added to the assay plate by acoustic dispensing (Labcyte 550). Control wells received DMSO only.
Next, the 2× substrate was prepared to comprise 6 uM arachidonic acid and 20 uM ATP in the assay buffer. 10 μL of the 2× substrate was then added to all wells in the assay plate. The plate was incubated for 20 min. The plate was read on Synergy Neo2 in fluorescence mode: excitation 485 nm, emission 530 nm. % inhibition and the resulting IC50 was calculated for the compound using the following equation:
[formula] • where RFU100% is fluorescence in control samples without compound, RFU0% is fluorescence in control samples without LOX-5, and RFUcompound fluorescence in a sample with compound.
The calculated %-Inh values were plotted against compound concentration. To determine IC50 values, dose-response curves were fitted by a 4-parameter sigmoid inhibition model using XLFit® software (IDBS).

SMILES	IC50
CC(C)=CCCC1(C)C=CC2=C(O1)C(=O)c1ccccc1C2=O (centres unmarked) [Formula XXVII]	> 10000 nM

Same assay, conditions: recombinant enzyme, 3 uM AA; read-out: 5-Lox inhibitory activity IC50

SMILES	IC50
CCCCCC1=CC(=O)C2=C(OC(C)(CCC=C(C)C)C=C2)C1=O (centres unmarked) [Formula II]	270 nM
CCCCCc1cc(OC(C)=O)c2c(c1OC(C)=O)OC(C)(CCC=C(C)C)C=C2 (centres unmarked) [Formula XXIII]	2710 nM
CCCCCc1cc(O)c2c(c1O)OC(C)(CCC=C(C)C)C=C2 (centres unmarked) [Formula XXII]	250 nM
CCCCCc1cc(OC)c2c(c1OC)OC(C)(CCC=C(C)C)C=C2 (centres unmarked) [Formula XXIV]	> 10000 nM
CCCCCC1=C(NCC)C(=O)C2=C(OC(C)(CCC=C(C)C)C=C2)C1=O (centres unmarked) [Formula XXVIII]	> 10000 nM
CCCCCC1=CC(=O)C2=C(O[C@](C)(CCC=C(C)C)C=C2)C1=O [Formula XXVI]	230 nM
CCCCCC1=C(NCCC)C(=O)C2=C(OC(C)(CCC=C(C)C)C=C2)C1=O (centres unmarked) [Formula XXV]	1180 nM

Reference: patent US20250057859A1, “CANNABICHROMENEQUINONE AND ANALOGUES THEREOF, AND METHOD OF USING COMPOSITIONS THEREOF AS ANTI-INFLAMMATORY AGENTS” (Juva Life, Inc., priority 2021, published 2025)
